Columns and labels:
Format in all cases: cell-based
NHE1 = target: T1, NHE1 (Homo sapiens, UniProt P19634); assay: Measurements of NHE1 inhibitory activities (HLF cells, BCECF pH recovery); conditions: HLF cells (human hepatoma cell line), measured after 10 minutes; read-out: hNHE1 IC50
T1 construct: HLF cells (Human hepatoma cell line) were used as cells for the test; endogenous in cells; host or cells: HLF cells (human hepatoma cell line)
Protocol: Pharmacological Test Example 1: Measurements of NHE1 Inhibitory Activities
(§1) HLF cells (Human hepatoma cell line) were used as cells for the test. After 1×10^4 cells/well were seeded to a 96-well plate and cultured for 3 days, they were cultured overnight under a serum-free medium. Then, the cells were incubated in a stain solution of Tetramethylammonium (TMA) Buffer (130 mM TMA-C1, 5 mM KCl, 2 mM CaCl2, 1 mM MgSO2, 25 mM glucose, 20 mM HEPES; pH 7.4) containing 40 mM NH4Cl and 1 μg/mL pH-sensitive fluorescent indicator BCECF-AM at 37° C. for 40 minutes and then BCECF was introduced into the cells. After the cells were washed once with TMA Buffer and incubated in TMA+40 mM NH4Cl solution at 37° C. for 15 minutes, the solution was removed and 20 μL/well of TMA Buffer and 10 μL/well of each test compound solution prepared with TMA Buffer were added to each well. The measurements were carried out by adding 200 μL/well of Na Buffer (130 mM, NaCl, 5 mM KCl, 2 mM CaCl2, 1 mM MgSO2, 1 mM NaH2PO4, 25 mM glucose, 20 mM HEPES; pH 7.4) or TMA Buffer (for base measurement), immediately placing it on FlexStation (Molecular Device) and then, after 10 minutes, measuring, it the two wavelengths of 505 nm (excitation wavelength)/530 nm (emission wavelength) (measurement value) and 440 nm (excitation wavelength)/530 nm (emission wavelength) (isosbestic point value). A NHE activity was calculated by dividing a measurement value by an isosbestic point value and a NHE1 inhibitory activity was calculated by the following equation. NHE1 inhibitory activity (%)=100×(1−(Measurement value [addition of each compound]−Base [addition of TMA Buffer])/(Control [addition of Na Buffer]−Base [addition of TMA Buffer]))

human NHE3 [1] = target: T2, human NHE3 (Homo sapiens, UniProt P48764); assay: Measurements of NHE3 inhibitory activities (OK26 cells); conditions: OK26 cells (opossum kidney cells overexpressing human NHE3), measurement time 5 minutes at 37° C.; read-out: hNHE3 IC50
T2 construct: expressed in transfected cells; host or cells: OK26 cells (opossum kidney OK cells); OK26 ND sublines with opNHE1 reduced by 90% for A3
T2 sequence (P48764 26-834): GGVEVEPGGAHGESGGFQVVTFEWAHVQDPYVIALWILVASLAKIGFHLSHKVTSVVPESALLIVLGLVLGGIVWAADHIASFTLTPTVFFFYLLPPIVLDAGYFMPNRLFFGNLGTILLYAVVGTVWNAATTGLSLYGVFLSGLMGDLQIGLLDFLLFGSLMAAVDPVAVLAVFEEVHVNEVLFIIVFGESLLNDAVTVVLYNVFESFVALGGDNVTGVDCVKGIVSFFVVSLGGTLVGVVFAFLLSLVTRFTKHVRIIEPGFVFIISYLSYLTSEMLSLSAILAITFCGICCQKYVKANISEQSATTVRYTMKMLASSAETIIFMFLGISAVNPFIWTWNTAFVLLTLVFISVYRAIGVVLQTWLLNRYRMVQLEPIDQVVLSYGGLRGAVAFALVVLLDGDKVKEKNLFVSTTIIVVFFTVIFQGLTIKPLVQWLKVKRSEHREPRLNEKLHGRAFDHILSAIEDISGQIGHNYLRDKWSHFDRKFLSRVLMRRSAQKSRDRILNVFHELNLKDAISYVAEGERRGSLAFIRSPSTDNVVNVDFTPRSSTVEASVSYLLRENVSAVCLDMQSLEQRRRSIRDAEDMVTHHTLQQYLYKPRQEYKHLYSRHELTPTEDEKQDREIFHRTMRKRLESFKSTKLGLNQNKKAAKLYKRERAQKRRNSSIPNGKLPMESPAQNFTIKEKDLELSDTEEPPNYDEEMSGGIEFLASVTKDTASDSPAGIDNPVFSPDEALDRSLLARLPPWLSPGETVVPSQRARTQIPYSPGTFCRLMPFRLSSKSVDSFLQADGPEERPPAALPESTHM
Protocol: as §1
Pharmacological Test Example 2: Measurements of NHE3 Inhibitory Activities.
OK26 cells (OK (opossum kidney) cells in which human NHE3 genes are overexpressed) were used as cells for the test. The measurements were carried out in the same manner as described in Pharmacological Test Example 1 except that the measurement time was 5 minutes (at 37° C.) to calculate NHE3 inhibitory activities.

human NHE3 [2] = target: T2, human NHE3; assay: Improved version of measurements of NHE3 inhibitory activities (OK26 ND cell lines); conditions: OK26 ND cell lines (opNHE1 expression reduced by 90%), measurement time 8 minutes at 26° C.; read-out: hNHE3 IC50
Protocol: Pharmacological Test Example 3: Improved Version of Measurements of NHE3 Inhibitory Activities
OK26 cells express endogeneous NHE1 (opNHE1). In order to evaluate NHE3 inhibitory activities more precisely, OK26 ND cell lines in which the expression level of opNHE1 is reduced by 90% were established. Measurements of NEE inhibitory activities were carried out by using the established cell lines in the same manner as described in Pharmacological Test Example 1 except that the measurement time was 8 minutes (at 26° C.) to calculate more precise NHE3 inhibitory activities.

T1 sequence (P19634 whole entry): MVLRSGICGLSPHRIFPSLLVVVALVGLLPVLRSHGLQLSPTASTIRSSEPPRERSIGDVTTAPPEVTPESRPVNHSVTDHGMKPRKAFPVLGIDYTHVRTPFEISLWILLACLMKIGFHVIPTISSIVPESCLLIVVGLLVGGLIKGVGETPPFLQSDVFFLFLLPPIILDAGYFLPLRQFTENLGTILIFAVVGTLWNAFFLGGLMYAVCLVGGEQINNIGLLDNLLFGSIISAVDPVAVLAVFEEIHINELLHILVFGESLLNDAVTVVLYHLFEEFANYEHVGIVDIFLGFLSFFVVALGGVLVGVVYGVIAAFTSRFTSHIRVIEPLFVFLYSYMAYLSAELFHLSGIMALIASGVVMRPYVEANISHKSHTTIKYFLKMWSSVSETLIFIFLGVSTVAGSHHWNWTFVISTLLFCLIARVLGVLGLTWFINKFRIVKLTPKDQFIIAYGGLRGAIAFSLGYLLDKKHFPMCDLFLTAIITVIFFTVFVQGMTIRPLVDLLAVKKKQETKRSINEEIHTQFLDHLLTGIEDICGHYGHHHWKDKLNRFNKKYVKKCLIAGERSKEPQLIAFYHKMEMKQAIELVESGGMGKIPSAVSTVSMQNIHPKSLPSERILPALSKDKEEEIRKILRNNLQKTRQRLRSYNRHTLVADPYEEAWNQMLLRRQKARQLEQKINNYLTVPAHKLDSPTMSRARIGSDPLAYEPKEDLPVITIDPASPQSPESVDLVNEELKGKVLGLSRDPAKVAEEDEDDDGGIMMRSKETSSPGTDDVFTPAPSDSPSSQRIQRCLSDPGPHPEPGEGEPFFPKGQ

Row | SMILES | IC50 (NHE1) [nM] | IC50 (human NHE3 [1]) [nM] | IC50 (human NHE3 [2]) [nM]
1 | C/C(=C\c1ccccc1-c1ccc(O)c(F)c1)C(=O)NC(=N)N [Example 24, N-[(E)-3-(3′-fluoro-4′-hydroxy-biphenyl-2-yl)-2-methyl-acryloyl]-guanidine] | 1200 | 470 | 210
2 | C/C(=C\c1ccccc1-c1ccc(B(O)O)cc1)C(=O)NC(=N)N [Example 11, N-[(E)-3-(4′-boronic acid-biphenyl-2-yl)-2-methyl-acryloyl]guanidine] | 1200 | 230 | 100
3 | C/C(=C\c1ccccc1-c1ccc(C(=O)O)cc1)C(=O)NC(=N)N [Example 10, (E)-2′-(3-guanidino-2-methyl-3-oxo-propenyl)-biphenyl-4-carboxylic acid] | – | 1600 | –
4 | C/C(=C\c1ccc(-c2ccc(F)c(O)c2)cc1)C(=O)NC(=N)N [Example 89, N-[(E)-3-(4′-fluoro-3′-hydroxy-biphenyl-4-yl)-2-methyl-acryloyl]-guanidine] | – | 860 | –
5 | C/C(=C\c1cc(O)c(O)cc1-c1cccc(O)c1)C(=O)NC(=N)N [Example 36, N-[(E)-2-methyl-3-(4,5,3′-trihydroxy-biphenyl-2-yl)-acryloyl]-guanidine] | – | 320 | 230
6 | C/C(=C\c1ccccc1-c1cc(C)c(O)c(C)c1)C(=O)NC(=N)N [Example 22, N-[(E)-3-(3′,5′-dimethyl-4′-hydroxy-biphenyl-2-yl)-2-methyl-acryloyl]-guanidine] | 3100 | 230 | 230
7 | C/C(=C\c1ccc(C)cc1-c1ccc(O)cc1)C(=O)NC(=N)N [Example 47, N-[(E)-3-(4′-hydroxy-5-methyl-biphenyl-2-yl)-2-methyl-acryloyl]-guanidine] | 1600 | 190 | 60
8 | C/C(=C\c1ccc(-c2ccccc2O)cc1)C(=O)NC(=N)N [Example 88, N-[3-(2′-hydroxy-biphenyl-4-yl)-2-methyl-acryloyl]-guanidine] | – | 480 | –
9 | C/C(=C\c1ccccc1-c1cccc(C(=O)NO)c1)C(=O)NC(=N)N [Example 55, (E)-2′-(3-guanidino-2-methyl-3-oxo-propenyl)-biphenyl-3-carboxylic acid hydroxyamide] | 2900 | – | 440
10 | C/C(=C\c1ccccc1-c1ccc(C(=N)N)c(F)c1)C(=O)NC(=N)N [Example 58, (E)-3-fluoro-2′-(3-guanidino-2-methyl-3-oxo-propenyl)-biphenyl-4-carboxamidine] | 200 | – | 9
11 | C/C(=C\c1ccc(Oc2ccc(O)cc2)cc1-c1ccc(O)cc1)C(=O)NC(=N)N [Example 71, N-{(E)-3-[4′-hydroxy-5-(4-hydroxy-phenoxy)-biphenyl-2-yl]-2-methyl-acryloyl}-guanidine] | 1300 | – | 130
12 | C/C(=C\c1ccccc1-c1cc[nH]c1)C(=O)NC(=N)N [Example 84, N-{(E)-2-methyl-3-[2-(1H-pyrrole-3-yl)-phenyl]-acryloyl}-guanidine] | 2100 | – | 180
13 | C/C(=C\c1ccc(C)cc1-c1ccc(O)c(O)c1)C(=O)NC(=N)N [Example 69, N-[(E)-3-(3′,4′-dihydroxy-5-methyl-biphenyl-2-yl)-2-methyl-acryloyl]-guanidine] | 580 | – | 100
14 | C/C(=C\c1ccccc1-c1cccc(O)c1)C(=O)NC(=N)N [Example 13, N-[(E)-3-(3′-hydroxy-biphenyl-2-yl)-2-methyl-acryloyl]guanidine] | – | 210 | 110
15 | C/C(=C\c1ccc(-c2ccc(O)cc2C)cc1)C(=O)NC(=N)N [Example 86, N-[(E)-3-(4′-hydroxy-2′-methyl-biphenyl-4-yl)-2-methyl-acryloyl]-guanidine] | – | 230 | –
16 | C/C(=C\c1ccc(Oc2ccc(S(N)(=O)=O)cc2)cc1-c1ccc(O)cc1)C(=O)NC(=N)N [Example 65, 4-[(E)-6-(3-guanidino-2-methyl-3-oxo-propenyl)-4′-hydroxy-biphenyl-3-yloxy]-benzenesulfonamide] | 1500 | – | 210
17 | C/C(=C\c1ccc(-c2cccc(O)c2)cc1)C(=O)NC(=N)N [Example 87, N-[(E)-3-(3′-hydroxy-biphenyl-4-yl)-2-methyl-acryloyl]-guanidine] | – | 270 | –
18 | C/C(=C\c1ccc(C)cc1-c1cccc(O)c1)C(=O)NC(=N)N [Example 37, N-[(E)-3-(3′-hydroxy-5-methyl-biphenyl-2-yl)-2-methyl-acryloyl]-guanidine] | 1600 | 180 | 38
19 | C/C(=C\c1ccccc1-c1ccc(O)c(C)c1)C(=O)NC(=N)N [Example 61, N-[(E)-3-(4′-hydroxy-3′-methyl-biphenyl-2-yl)-2-methyl-acryloyl]-guanidine] | 4300 | – | 400
20 | C/C(=C\c1ccccc1-c1ccc(O)cc1Cl)C(=O)NC(=N)N [Example 60, N-[(E)-3-(2′-chloro-4′-hydroxy-biphenyl-2-yl)-2-methyl-acryloyl]-guanidine] | 910 | – | 310
21 | C/C(=C\c1ccccc1-c1ccc(O)cc1O)C(=O)NC(=N)N [Example 53, N-[(E)-3-(2′,4′-hydroxy-2-yl)-2-methyl-acryloyl]-guanidine] | 2900 | – | 740
22 | C/C(=C\c1ccc(-c2cccc(O)c2)cc1-c1cccc(O)c1)C(=O)NC(=N)N [Example 77, N-[(E)-3-(2,4-di(3-hydroxyphenyl)-phenyl)-2-methyl-acryloyl]-guanidine] | 940 | – | 61
23 | C/C(=C\c1ccc(Oc2ccc(S(N)(=O)=O)cc2)cc1-c1cccc(O)c1)C(=O)NC(=N)N [Example 64, 4-[(E)-6-(3-guanidino-2-methyl-3-oxo-propenyl)-3′-hydroxy-biphenyl-3-yloxy]-benzenesulfonamide] | 1300 | – | 150
24 | C/C(=C\c1c(F)cccc1-c1ccc(O)cc1)C(=O)NC(=N)N [Example 82, N-[(E)-3-(3-fluoro-4′-hydroxy-biphenyl-2-yl)-2-methyl-acryloyl]-guanidine] | 6600 | – | 350
25 | C/C(=C\c1ccc(-c2ccc(O)cc2)cc1-c1ccc(O)cc1)C(=O)NC(=N)N [Example 72, N-[(E)-3-(2,4-di(4-hydroxyphenyl)-phenyl)-2-methyl-acryloyl]-guanidine] | 1100 | – | 87
26 | C/C(=C\c1ccccc1-c1ccc(O)cc1)C(=O)NC(=N)N [Example 2, N-[(E)-3-(4′-hydroxy-biphenyl-2-yl)-2-methyl-acryloyl]-guanidine] | – | 110 | 83

Reference: patent US20120088737A2, “NOVEL ACYL GUANIDINE DERIVATIVES” (AJINOMOTO CO., INC, priority 2009, published 2012)
